According to ChEMBL document CHEMBL5465560, “Selectivity Literature for EUbOPEN Chemogenomic Library” (2024):

What was measured:
[1] = biological target: Calcium/calmodulin-dependent protein kinase type II subunit alpha (Homo sapiens, UniProt Q9UQM7); assay: Selectivity interaction (Kinase panel (KiNativ target engagement assay in Jurkat cells)) EUB0001635a CAMK2A; assay type: cell-based; settings: Selectivity number of off-targets 0.0, Selectivity number of targets 233.0, Source Knowledge https://www.sciencedirect.com/science/article/pii/S2451945619300674?via%3Dihub, at 1 µM
Calcium/calmodulin-dependent protein kinase type II subunit alpha, sequence (Q9UQM7 whole entry): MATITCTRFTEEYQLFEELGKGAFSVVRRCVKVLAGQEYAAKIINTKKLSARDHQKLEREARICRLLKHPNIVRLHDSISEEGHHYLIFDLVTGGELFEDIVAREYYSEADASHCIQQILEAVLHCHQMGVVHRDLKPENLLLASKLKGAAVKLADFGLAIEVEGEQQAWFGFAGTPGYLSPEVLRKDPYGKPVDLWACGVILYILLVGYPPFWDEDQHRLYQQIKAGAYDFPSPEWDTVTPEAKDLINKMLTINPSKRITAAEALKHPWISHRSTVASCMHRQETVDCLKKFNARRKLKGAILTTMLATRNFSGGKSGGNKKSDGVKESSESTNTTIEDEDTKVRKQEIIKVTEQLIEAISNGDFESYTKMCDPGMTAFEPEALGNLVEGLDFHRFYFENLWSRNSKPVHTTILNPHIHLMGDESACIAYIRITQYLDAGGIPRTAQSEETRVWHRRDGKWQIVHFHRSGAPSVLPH

[2] = biological target: Serine/threonine-protein kinase mTOR (Homo sapiens, UniProt P42345); assay: Selectivity interaction (Kinase panel (Invitrogen)) EUB0000639a MTOR; settings: at 200 nM
[3] = biological target: Dual specificity protein kinase CLK2 (Homo sapiens, UniProt P49760); assay: Selectivity interaction (ActivX KiNativ screen (kinase selectivity in THP-1 cell lysates)) EUB0000639a CLK2; assay type: subcellular; settings: lysate
Dual specificity protein kinase CLK2, sequence (P49760 whole entry, looked up): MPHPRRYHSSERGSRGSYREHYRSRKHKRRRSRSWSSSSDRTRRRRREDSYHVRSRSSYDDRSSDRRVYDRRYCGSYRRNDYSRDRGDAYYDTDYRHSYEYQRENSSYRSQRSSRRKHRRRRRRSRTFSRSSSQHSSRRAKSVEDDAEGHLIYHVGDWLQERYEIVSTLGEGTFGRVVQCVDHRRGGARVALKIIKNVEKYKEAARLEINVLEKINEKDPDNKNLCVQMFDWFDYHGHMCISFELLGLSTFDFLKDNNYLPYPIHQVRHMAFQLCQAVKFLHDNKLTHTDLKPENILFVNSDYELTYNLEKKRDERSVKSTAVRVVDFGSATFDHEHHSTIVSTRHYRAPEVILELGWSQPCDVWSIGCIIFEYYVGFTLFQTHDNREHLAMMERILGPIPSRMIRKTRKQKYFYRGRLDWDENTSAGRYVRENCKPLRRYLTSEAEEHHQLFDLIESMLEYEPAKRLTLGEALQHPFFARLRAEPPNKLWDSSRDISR

[4] = biological target: T1, Serine/threonine-protein kinase PLK4 (Homo sapiens) (UniProt O00444); assay: Selectivity interaction (Kinase panel (DSF assay)) EUB0001489b PLK4
T1 sequence (whole entry): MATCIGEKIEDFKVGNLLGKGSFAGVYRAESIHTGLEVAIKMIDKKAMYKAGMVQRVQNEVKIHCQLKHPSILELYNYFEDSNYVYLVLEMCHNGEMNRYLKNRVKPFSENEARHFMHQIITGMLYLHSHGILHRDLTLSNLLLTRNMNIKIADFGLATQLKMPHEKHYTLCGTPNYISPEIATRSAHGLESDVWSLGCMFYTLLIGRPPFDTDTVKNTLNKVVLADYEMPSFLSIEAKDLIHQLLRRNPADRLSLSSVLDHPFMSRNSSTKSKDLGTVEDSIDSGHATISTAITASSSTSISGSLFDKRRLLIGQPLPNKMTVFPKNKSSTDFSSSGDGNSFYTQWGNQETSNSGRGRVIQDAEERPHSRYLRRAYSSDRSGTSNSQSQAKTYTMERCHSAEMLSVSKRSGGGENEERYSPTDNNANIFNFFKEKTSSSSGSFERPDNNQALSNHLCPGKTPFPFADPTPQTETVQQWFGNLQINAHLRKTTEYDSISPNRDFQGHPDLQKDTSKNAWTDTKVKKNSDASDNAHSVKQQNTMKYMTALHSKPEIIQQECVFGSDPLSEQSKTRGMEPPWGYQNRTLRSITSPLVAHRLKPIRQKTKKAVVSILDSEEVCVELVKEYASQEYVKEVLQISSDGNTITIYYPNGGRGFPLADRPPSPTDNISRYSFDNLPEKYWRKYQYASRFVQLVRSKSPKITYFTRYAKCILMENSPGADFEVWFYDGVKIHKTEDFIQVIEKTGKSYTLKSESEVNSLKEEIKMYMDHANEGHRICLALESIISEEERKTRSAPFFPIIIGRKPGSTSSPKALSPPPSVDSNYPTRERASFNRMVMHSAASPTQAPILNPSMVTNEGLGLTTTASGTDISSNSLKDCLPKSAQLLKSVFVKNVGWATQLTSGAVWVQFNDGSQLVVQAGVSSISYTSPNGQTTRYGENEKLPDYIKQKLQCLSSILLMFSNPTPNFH

[5] = biological target: cAMP-dependent protein kinase catalytic subunit beta (Homo sapiens) (UniProt P22694); assay: Selectivity interaction (KinomeScan (DiscoverX)) EUB0000045b PRKACB
[6] = biological target: T2, Serine/threonine-protein kinase Nek9 (Homo sapiens) (UniProt Q8TD19); assay: Selectivity interaction (ActivX KiNativ screen (ex vivo kinase selectivity in human PBMCs)) EUB0001619a NEK9; assay type: cell-based; settings: PBMC, at 1 µM
T2 sequence (whole entry): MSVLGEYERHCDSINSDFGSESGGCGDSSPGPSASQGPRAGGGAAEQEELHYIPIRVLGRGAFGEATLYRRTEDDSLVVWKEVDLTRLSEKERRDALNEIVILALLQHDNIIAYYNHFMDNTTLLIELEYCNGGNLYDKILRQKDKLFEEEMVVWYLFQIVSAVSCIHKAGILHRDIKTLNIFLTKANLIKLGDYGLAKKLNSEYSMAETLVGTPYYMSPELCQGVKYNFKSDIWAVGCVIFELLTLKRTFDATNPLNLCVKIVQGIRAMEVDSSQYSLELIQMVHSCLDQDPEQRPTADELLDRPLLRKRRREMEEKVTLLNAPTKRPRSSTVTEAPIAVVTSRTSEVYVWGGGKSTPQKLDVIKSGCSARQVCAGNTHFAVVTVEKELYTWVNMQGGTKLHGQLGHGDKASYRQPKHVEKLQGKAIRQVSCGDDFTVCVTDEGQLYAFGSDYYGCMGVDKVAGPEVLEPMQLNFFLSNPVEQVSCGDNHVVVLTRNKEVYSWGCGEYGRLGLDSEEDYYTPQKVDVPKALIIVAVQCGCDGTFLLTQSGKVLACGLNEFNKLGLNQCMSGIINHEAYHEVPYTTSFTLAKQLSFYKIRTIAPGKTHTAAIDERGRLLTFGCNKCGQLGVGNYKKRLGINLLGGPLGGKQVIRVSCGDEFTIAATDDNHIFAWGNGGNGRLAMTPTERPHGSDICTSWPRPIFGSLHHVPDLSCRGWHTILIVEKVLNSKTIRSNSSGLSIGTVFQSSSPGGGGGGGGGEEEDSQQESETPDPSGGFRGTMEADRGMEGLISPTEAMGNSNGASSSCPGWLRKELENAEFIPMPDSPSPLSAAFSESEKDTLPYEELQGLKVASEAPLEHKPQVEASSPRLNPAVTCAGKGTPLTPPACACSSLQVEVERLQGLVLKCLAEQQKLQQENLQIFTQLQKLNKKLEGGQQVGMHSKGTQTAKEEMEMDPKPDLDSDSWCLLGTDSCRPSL

[7] = biological target: Serine/threonine-protein kinase PAK 2 (Homo sapiens) (UniProt Q13177); assay: Selectivity interaction (KinomeScan (DiscoverX)) EUB0000655a PAK2; settings: at 10 µM
Serine/threonine-protein kinase PAK 2 (Homo sapiens), sequence (Q13177 whole entry): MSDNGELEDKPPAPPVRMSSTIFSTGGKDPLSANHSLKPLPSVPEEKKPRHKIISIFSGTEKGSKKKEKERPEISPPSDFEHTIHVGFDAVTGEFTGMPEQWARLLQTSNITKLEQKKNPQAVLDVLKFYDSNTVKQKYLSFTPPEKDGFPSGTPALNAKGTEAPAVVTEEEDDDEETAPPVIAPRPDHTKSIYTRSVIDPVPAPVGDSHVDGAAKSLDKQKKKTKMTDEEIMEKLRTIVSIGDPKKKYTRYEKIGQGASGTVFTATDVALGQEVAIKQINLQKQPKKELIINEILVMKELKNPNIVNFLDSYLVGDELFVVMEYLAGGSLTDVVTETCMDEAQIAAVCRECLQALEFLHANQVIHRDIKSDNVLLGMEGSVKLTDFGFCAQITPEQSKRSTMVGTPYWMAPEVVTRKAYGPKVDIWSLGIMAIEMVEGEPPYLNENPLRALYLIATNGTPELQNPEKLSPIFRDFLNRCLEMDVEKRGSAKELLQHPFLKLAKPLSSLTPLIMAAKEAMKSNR

Compound: C=CC(=O)Nc1ccc(C(=O)Nc2[nH]nc3c2CN(C(=O)N[C@H](CN(C)C)c2ccccc2)C3(C)C)cc1
- % of engagement [1]: 24.5%

Compound: CC[C@@H]1[C@H](F)C(=O)N[C@@H]1COc1nccc2cc(C(N)=O)c(OC)cc12 [ZIMLOVISERTIB]
- % of inhibition [2]: 3.37%
- % of inhibition ([3]; at 0.01 µM): 26.8%
- % of inhibition ([3]; at 0.04 µM): 32.4%
- % of inhibition ([3]; at 0.2 µM): 38.8%
- % of inhibition ([3]; at 1 µM): 14.3%
- % of inhibition ([3]; at 5 µM): 19.9%

Compound: CN1CCN(C(=O)c2ccc3cc2OCCOCCNc2ccn4ncc-3c4n2)CC1
- dTM [4]: 4 K

Compound: C=CC(=O)Nc1cc(-n2c(=O)ccc3cnc4ccc(-c5ccc(NS(C)(=O)=O)cc5)cc4c32)ccc1C
- % of control ([5]; at 1 µM): 79%
- % of control ([5]; at 10 µM): 100%

Compound: N#Cc1cccc(-c2c[nH]c3ncnc(N4CCOCC4)c23)c1
- % of inhibition [6]: -16%

Compound: CN(C)CCOc1ccc(-c2nc(-c3ccncc3)c(-c3ccc4c(c3)CC/C4=N\O)[nH]2)cc1
- % of control [7]: 85%
